Here are results for 25 molecules from patent US10227315B2, “Mitochondrial uncouplers for treatment of metabolic diseases and cancer” (RUTGERS, THE STATE UNIVERSITY OF NEW JERSEY, priority 2016, dated 2019).

In assay [1] the test system is mouse myoblast C2C12 cells. The assay is described as follows: Oxygen consumption rate (OCR) assay with Seahorse XF96 or XF24, mitochondrial uncoupling. Type of assay: cell-based. The note with it: 10% fetal bovine serum, in the presence of oligomycin 2.5 μM, read-out: Cmin (minimal concentration to induce ATP synthase-independent OCR increase). The text has this:
By definition, mitochondrial uncoupling is the decoupling of mitochondrial electron transport chain activity (mitochondrial oxidation) from ATP synthesis by mitochondrial ATP synthase. Technically, mitochondrial uncoupling activity is defined by the ability of a chemical compound to induce oxygen consumption of cells or isolated mitochondria in the presence of a mitochondrial ATP synthase inhibitor such as oligomycin. Accordingly, we determined mitochondrial uncoupling activity by oxygen consumption rate (OCR) assay with a Seahorse XF96 or a Seahorse XF24 instrument following the vendor's instruction, using mouse myoblast C2C12 cells growing in medium containing 10% fetal bovine serum. […] The minimal concentration (Cmin) of each compound under which OCR is induced in the presence of oligomycin, was determined.

Assay [2] has as its system NIH-3T3 cells, or HepG2 cells. In words: Mitochondrial membrane potential assay, TMRE staining. The following applies: 2 h; two hours treatment, TMRE 100 nM; read-out: EC50, mitochondrial membrane potential reduction (TMRE staining reduced to about 50%). The class given is cell-based. As for the experimental part: Mitochondrial uncoupling may also lead to a reduction of mitochondrial membrane potential. We performed mitochondrial membrane potential assay using TMRE (tetramethylrhodamine ethyl ester) staining method with cultured mammalian cells, the NIH-3T3 cells, or HepG2 cells. Cells were seeded onto 6-well plates and cultured in DMEM medium supplemented with 10% fetal bovine serum and 2 mM glutamine. Cells were allowed to grow to logarithmic growth phase prior to experiments. The cells were treated with each individual compound at various concentrations for two hours, followed by staining with TMRE at final concentration of 100 nM for 15 minutes. The cells were then washed once with PBS, and examined under fluorescence microscopy. Cells treated with various concentrations of niclosamide ethanolamine were used as positive control. Reduction of mitochondrial TMRE staining was estimated as a quantification of mitochondrial uncoupling activity. […] The following table (Table II) summarizes the activity of individual compounds in reducing mitochondrial membrane potential in cultured mammalian cells.

With `CN(C)CCc1cc(Cl)cc(C(=O)Nc2nc3ccc(C(F)(F)F)cc3s2)c1O` [Compound 2, 5-Chloro-3-(2-(dimethylamino)ethyl)-2-hydroxy-N-(6-(trifluoromethyl)benzo[d]thiazol-2-yl)benzamide], the minimal effective concentration in assay [1] was less than 10 µM.
Same read-out and setting: as for `CS(=O)(=O)NCCc1cc(Cl)cc(C(=O)Nc2nc3ccc(C(F)(F)F)cc3s2)c1O` [Compound 3, 5-Chloro-2-hydroxy-3-(2-(methylsulfonamido)ethyl)-N-(6-(trifluoromethyl)benzo[d]thiazol-2-yl)benzamide], the figure is less than 10 µM.
As for `O=C(Nc1nc2ccc(C(F)(F)F)cc2s1)c1cc(Cl)cc2nc(C(F)(F)F)[nH]c12` [Compound 8, 5-Chloro-2-(trifluoromethyl)-N-(6-(trifluoromethyl)benzo[d]thiazol-2-yl)-1H-benzo[d]imidazole-7-carboxamide], in assay [1], the minimal effective concentration was in the range of 10 to 25 µM. For the same molecule, the EC50 (commonly the concentration at which the effect is half-maximal) in assay [2] lay in the range of 10 to 25 µM.
Take `Oc1cc(Nc2nc3ccc(C(F)(F)F)cc3s2)c(C(F)(F)F)cc1C(F)(F)F` [Compound 9, 2,4-Bis(trifluoromethyl)-5-((6-(trifluoromethyl)benzo[d]thiazol-2-yl)amino)phenol]: the minimal effective concentration in assay [1] is greater than 25 µM. Moreover, the EC50 in assay [2] is greater than 25 µM.
Take `O=C(Nc1ccc([N+](=O)[O-])cc1Cl)c1cc(Cl)ccc1OC(=O)N1CCOCC1` [Compound 13, 4-Chloro-2-((2-chloro-4-nitrophenyl)carbamoyl)phenyl morpholine-4-carboxylate]: the minimal effective concentration in assay [1] was less than 10 µM. Further, in assay [2], the EC50 is less than 10 µM.
`O=C(Nc1ccc(C(F)(F)F)cc1Cl)c1cc(Cl)ccc1O` [Compound 14, 5-Chloro-N-(2-chloro-4-(trifluoromethyl)phenyl)-2-hydroxybenzamide]: the minimal effective concentration in assay [1] is less than 10 µM. For the same molecule, in assay [2], the EC50 was less than 10 µM.
For `O=C(Nc1ccc(F)cc1Cl)c1cc(Cl)ccc1O` [Compound 15, 5-Chloro-N-(2-chloro-4-fluorophenyl)-2-hydroxybenzamide], in assay [1], the minimal effective concentration is less than 10 µM. In addition, the EC50 in assay [2] was less than 10 µM.
Regarding `N#Cc1ccc(NC(=O)c2cc(Cl)ccc2O)c(Cl)c1` [Compound 16, 5-Chloro-N-(2-chloro-4-cyanophenyl)-2-hydroxybenzamide], the minimal effective concentration in assay [1] was less than 10 µM. In assay [2], the EC50 was less than 10 µM.
As for `O=C(Nc1nc2c(F)cc(C(F)(F)F)cc2s1)c1cc(Cl)ccc1O` [Compound 21, 5-Chloro-N-(4-fluoro-6-(trifluoromethyl)benzo[d]thiazol-2-yl)-2-hydroxybenzamide], the minimal effective concentration in assay [1] was less than 10 µM. The EC50 in assay [2] was less than 10 µM.
On to `O=C(Nc1nc2c(C(F)(F)F)cc(C(F)(F)F)cc2s1)c1cc(Cl)ccc1O` [Compound 22, N-(4,6-Bis(trifluoromethyl)benzo[d]thiazol-2-yl)-5-chloro-2-hydroxybenzamide], for which, in assay [1], the minimal effective concentration was less than 10 µM. Also, the concentration for a half-maximal effect (EC50) in assay [2] is less than 10 µM.
With `O=C(Nc1nc2cc(C(F)(F)F)ccc2s1)c1cc(Cl)ccc1O` [Compound 25, 5-Chloro-2-hydroxy-N-(5-(trifluoromethyl)benzo[d]thiazol-2-yl)benzamide], the minimal effective concentration in assay [1] is greater than 25 µM. Also, in assay [2], the EC50 is greater than 25 µM.
Consider `O=C(Nc1nc2cccc(C(F)(F)F)c2s1)c1cc(Cl)ccc1O` [Compound 26, 5-Chloro-2-hydroxy-N-(7-(trifluoromethyl)benzo[d]thiazol-2-yl)benzamide], for which, in assay [1], the minimal effective concentration was greater than 25 µM. The EC50 in assay [2] is greater than 25 µM.
For `O=C(Nc1nc2c(C(F)(F)F)cccc2s1)c1cc(Cl)ccc1O` [Compound 32, 5-Chloro-2-hydroxy-N-(4-(trifluoromethyl)benzo[d]thiazol-2-yl)benzamide ethanolamine], the minimal effective concentration in assay [1] was less than 10 µM. In addition, the concentration giving a half-maximal response (EC50) in assay [2] was less than 10 µM.
On to `O=C(Nc1nc2ccc(C(F)(F)F)cc2s1)c1cc(Cl)ccc1O` [Compound 33, 5-Chloro-2-hydroxy-N-(6-(trifluoromethyl)benzo[d]thiazol-2-yl)benzamide ethanolamine], for which the minimal effective concentration in assay [1] was less than 10 µM. For the same molecule, the EC50 in assay [2] was less than 10 µM.
Regarding `Cc1cc(Cl)cc(C(=O)Nc2nc3c(C(F)(F)F)cccc3s2)c1O` [Compound 34, 5-Chloro-2-hydroxy-3-methyl-N-(4-(trifluoromethyl)benzo[d]thiazol-2-yl)benzamide ethanolamine], the EC50 in assay [2] is less than 10 µM.
Still for that read-out and setting: as for `O=C(Nc1nc2c(F)cc(F)cc2s1)c1cc(Cl)ccc1O` [Compound 35, 5-Chloro-N-(4,6-difluorobenzo[d]thiazol-2-yl)-2-hydroxybenzamide ethanolamine], the figure is less than 10 µM.
Turning to `O=C(Nc1nc2ccc(C(F)(F)F)cc2s1)c1cc(Cl)cc(C2CC2)c1O` [Compound 36, 5-Chloro-3-cyclopropyl-2-hydroxy-N-(6-(trifluoromethyl)benzo[d]thiazol-2-yl)benzamide], the minimal effective concentration in assay [1] is less than 10 µM. For the same molecule, in assay [2], the EC50 is less than 10 µM.
As to `Cc1cc(Cl)cc(C(=O)Nc2nc3ccc(C(F)(F)F)cc3s2)c1O` [Compound 37, 5-Chloro-2-hydroxy-3-methyl-N-(6-(trifluoromethyl)benzo[d]thiazol-2-yl)benzamide compound with (2R,3R,4R,5S)-6-(methylamino)hexane-1,2,3,4,5-pentaol (1:1)], the EC50 in assay [2] was less than 10 µM.
With `Cc1cc(Cl)cc(C(=O)Nc2nc3cc(C(F)(F)F)ccc3s2)c1O` [Compound 41, 5-Chloro-2-hydroxy-3-methyl-N-(5-(trifluoromethyl)benzo[d]thiazol-2-yl)benzamide], the minimal effective concentration in assay [1] is less than 10 µM. Also, in assay [2], the EC50 was less than 10 µM.
As to `CN(C)CCCc1cc(Cl)cc(C(=O)Nc2nc3ccc(C(F)(F)F)cc3s2)c1O` [Compound 52, 5-Chloro-3-(3-(dimethylamino)propyl)-2-hydroxy-N-(6-(trifluoromethyl)benzo[d]thiazol-2-yl)benzamide], the minimal effective concentration in assay [1] is less than 10 µM.
In the case of `CN(C)Cc1cc(Cl)cc(C(=O)Nc2nc3ccc(C(F)(F)F)cc3s2)c1O` [Compound 53, 5-Chloro-3-((dimethylamino)methyl)-2-hydroxy-N-(6-(trifluoromethyl)benzo[d]thiazol-2-yl)benzamide], the minimal effective concentration in assay [1] is less than 10 µM.
Still for that read-out and setting: as for `CN(C)Cc1cc(Cl)cc(C(=O)Nc2nc3ccc(OC(F)(F)F)cc3s2)c1O` [Compound 54, 5-Chloro-3-((dimethylamino)methyl)-2-hydroxy-N-(6-(trifluoromethoxy)benzo[d]thiazol-2-yl)benzamide], the figure is less than 10 µM.
On the same count and under the same terms, as for `Cc1nc2cc(Cl)cc(C(=O)Nc3nc4ccc(C(F)(F)F)cc4s3)c2[nH]1` [Compound 56, 5-Chloro-2-methyl-N-(6-(trifluoromethyl)benzo[d]thiazol-2-yl)-1H-benzo[d]imidazole-7-carboxamide], the figure is less than 10 µM; as for `CCc1nc2cc(Cl)cc(C(=O)Nc3nc4ccc(C(F)(F)F)cc4s3)c2[nH]1` [Compound 57, 5-Chloro-2-ethyl-N-(6-(trifluoromethyl)benzo[d]thiazol-2-yl)-1H-benzo[d]imidazole-7-carboxamide], greater than 25 µM.
For the molecule `O=C(Nc1nc2c(F)cc(F)cc2s1)c1cc(Cl)cc2nn[nH]c12` [Compound 59, 5-Chloro-N-(4,6-difluorobenzo[d]thiazol-2-yl)-1H-benzo[d][1,2,3]triazole-7-carboxamide], the minimal effective concentration in assay [1] is greater than 25 µM.
